Reference: patent US10954269B2, “Anti-inflammatory tripeptides” (Dr. August Wolff Gmbh & Co. KG Arzneimittel, priority 2013, dated 2021)
[ ]: non-standard residue; d: D form. Aib = CC(C)(N)C(=O)O

System: primary human T-cells
Assay: Cytokine secretion on protein level in activated primary human T-cells (13-plex FACS / Luminex, supernatant)
Format: cell-based
Procedure, shortened: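 Stimulus: PMA/Ionomycin or IFN-γ, 48 h; cells: HaCaT or human peripheral-blood T-cells; tripeptide treatment; readout: supernatant cytokines via 13-plex FACS or Luminex, 48–72 h post-stimulation.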

[1] = primary human T-cells stimulated with IFN-γ, 10^−9M
[2] = primary human T-cells stimulated with IFN-γ, substance 10^−9M
[3] = primary human T-cells stimulated with PBS, 10^−9M
[4] = primary human T-cells stimulated with PBS, substance 10^−9M
[5] = primary human T-cells stimulated with PMA/Ionomycin, 10^−9M
[6] = primary human T-cells stimulated with PMA/Ionomycin, substance 10^−9M

Substance: H-Lys-[dP]-Thr-OH [K(D)PT, reference compound]
- IL-1 cytokine concentration [1]: 335.73 pg/mL
- IL-2 cytokine concentration [1]: 79.24 pg/mL
- IL-4 cytokine concentration [1]: 184.31 pg/mL
- IL-5 cytokine concentration [1]: 249.7 pg/mL
- IL-6 cytokine concentration [1]: 93.02 pg/mL
- IL-9 cytokine concentration [1]: 93.74 pg/mL
- IL-10 cytokine concentration [1]: 169.54 pg/mL
- IL-12p70 cytokine concentration [1]: 895.95 pg/mL
- IL-13 cytokine concentration [1]: 72.09 pg/mL
- IL-17 cytokine concentration [1]: 204.05 pg/mL
- IL-22 cytokine concentration [1]: 22747.7 pg/mL
- TNF-α cytokine concentration [1]: 178.65 pg/mL
- IL-1 cytokine concentration [2]: 0 pg/mL
- IL-2 cytokine concentration [2]: 0 pg/mL
- IL-4 cytokine concentration [2]: 0 pg/mL
- IL-5 cytokine concentration [2]: 0 pg/mL
- IL-6 cytokine concentration [2]: 58.47 pg/mL
- IL-9 cytokine concentration [2]: 9.51 pg/mL
- IL-10 cytokine concentration [2]: 33.21 pg/mL
- IL-12 cytokine concentration [2]: 0 pg/mL
- IL-12p70 cytokine concentration [2]: 0 pg/mL
- IL-13 cytokine concentration [2]: 0 pg/mL
- IL-17 cytokine concentration [2]: 0 pg/mL
- IL-22 cytokine concentration [2]: 0 pg/mL
- TNF-α cytokine concentration [2]: 0 pg/mL
- IFN-γ cytokine concentration [3]: 610.05 pg/mL
- IL-1 cytokine concentration [3]: 268.37 pg/mL
- IL-2 cytokine concentration [3]: 435.34 pg/mL
- IL-4 cytokine concentration [3]: 136.29 pg/mL
- IL-5 cytokine concentration [3]: 0 pg/mL
- IL-6 cytokine concentration [3]: 92.39 pg/mL
- IL-9 cytokine concentration [3]: 102.2 pg/mL
- IL-10 cytokine concentration [3]: 126.13 pg/mL
- IL-12p70 cytokine concentration [3]: 114.67 pg/mL
- IL-13 cytokine concentration [3]: 80.48 pg/mL
- IL-17 cytokine concentration [3]: 182.45 pg/mL
- IL-22 cytokine concentration [3]: 0 pg/mL
- TNF-α cytokine concentration [3]: 160.25 pg/mL
- IFN-γ cytokine concentration [4]: 0 pg/mL
- IL-1 cytokine concentration [4]: 147.97 pg/mL
- IL-2 cytokine concentration [4]: 0 pg/mL
- IL-4 cytokine concentration [4]: 0 pg/mL
- IL-5 cytokine concentration [4]: 0 pg/mL
- IL-6 cytokine concentration [4]: 109.89 pg/mL
- IL-9 cytokine concentration [4]: 0 pg/mL
- IL-10 cytokine concentration [4]: 159.09 pg/mL
- IL-12 cytokine concentration [4]: 0 pg/mL
- IL-12p70 cytokine concentration [4]: 0 pg/mL
- IL-13 cytokine concentration [4]: 172.66 pg/mL
- IL-17 cytokine concentration [4]: 127.21 pg/mL
- IL-22 cytokine concentration [4]: 0 pg/mL
- INF-α cytokine concentration [4]: 0 pg/mL
- TNF-a cytokine concentration [4]: 65.47 pg/mL
- TNF-α cytokine concentration [4]: 65.47 pg/mL
- IFN-γ cytokine concentration [5]: 1854.29 pg/mL
- IL-1 cytokine concentration [5]: 69689.2 pg/mL
- IL-2 cytokine concentration [5]: 12000 pg/mL
- IL-4 cytokine concentration [5]: 235.78 pg/mL
- IL-5 cytokine concentration [5]: 173.34 pg/mL
- IL-6 cytokine concentration [5]: 2058.24 pg/mL
- IL-9 cytokine concentration [5]: 162.4 pg/mL
- IL-10 cytokine concentration [5]: 4936.79 pg/mL
- IL-12p70 cytokine concentration [5]: 1703.5 pg/mL
- IL-13 cytokine concentration [5]: 944.87 pg/mL
- IL-17 cytokine concentration [5]: 3116.43 pg/mL
- IL-22 cytokine concentration [5]: 24079 pg/mL
- TNF-α cytokine concentration [5]: 3600 pg/mL
- IFN-γ cytokine concentration [6]: 12070.4 pg/mL
- IL-1 cytokine concentration [6]: 594.38 pg/mL
- IL-2 cytokine concentration [6]: 3486.84 pg/mL
- IL-4 cytokine concentration [6]: 41.83 pg/mL
- IL-5 cytokine concentration [6]: 379.39 pg/mL
- IL-6 cytokine concentration [6]: 1535.49 pg/mL
- IL-9 cytokine concentration [6]: 332.07 pg/mL
- IL-10 cytokine concentration [6]: 877.54 pg/mL
- IL-12 cytokine concentration [6]: 0 pg/mL
- IL-12p70 cytokine concentration [6]: 0 pg/mL
- IL-13 cytokine concentration [6]: 1158.74 pg/mL
- IL-17 cytokine concentration [6]: 1808.01 pg/mL
- IL-22 cytokine concentration [6]: 0 pg/mL
- INF-α cytokine concentration [6]: 12070.42 pg/mL
- TNF-a cytokine concentration [6]: 3998.01 pg/mL
- TNF-α cytokine concentration [6]: 3998.01 pg/mL

Substance: H-Phe-Pro-[Aib]-OH [Example 13]
- secretion / expression of pro-inflammatory cytokines (supernatant) (activated primary human T-cells): decreased expression
- immunomodulatory activity relative to MMF (cells activated with PMA/Ionomycin and IFN-γ, protein and gene level): higher
- IL-1 cytokine concentration [2]: 162.75 pg/mL
- IL-2 cytokine concentration [2]: 187.16 pg/mL
- IL-4 cytokine concentration [2]: 0 pg/mL
- IL-5 cytokine concentration [2]: 15.32 pg/mL
- IL-6 cytokine concentration [2]: 60.51 pg/mL
- IL-9 cytokine concentration [2]: 0 pg/mL
- IL-10 cytokine concentration [2]: 0 pg/mL
- IL-12p70 cytokine concentration [2]: 0 pg/mL
- IL-13 cytokine concentration [2]: 0 pg/mL
- IL-17 cytokine concentration [2]: 81.59 pg/mL
- IL-22 cytokine concentration [2]: 0 pg/mL
- TNF-α cytokine concentration [2]: 0 pg/mL
- IL-1 cytokine concentration [4]: 0 pg/mL
- IL-2 cytokine concentration [4]: 115.73 pg/mL
- IL-4 cytokine concentration [4]: 73.19 pg/mL
- IL-5 cytokine concentration [4]: 0 pg/mL
- IL-6 cytokine concentration [4]: 113.86 pg/mL
- IL-9 cytokine concentration [4]: 10.84 pg/mL
- IL-10 cytokine concentration [4]: 147.54 pg/mL
- IL-12p70 cytokine concentration [4]: 0 pg/mL
- IL-13 cytokine concentration [4]: 0 pg/mL
- IL-17 cytokine concentration [4]: 65.17 pg/mL
- IL-22 cytokine concentration [4]: 0 pg/mL
- INF-α cytokine concentration [4]: 0 pg/mL
- TNF-α cytokine concentration [4]: 50.36 pg/mL
- IL-1 cytokine concentration [6]: 558.46 pg/mL
- IL-2 cytokine concentration [6]: 2092.22 pg/mL
- IL-4 cytokine concentration [6]: 0 pg/mL
- IL-5 cytokine concentration [6]: 354.06 pg/mL
- IL-6 cytokine concentration [6]: 1185.87 pg/mL
- IL-9 cytokine concentration [6]: 248.66 pg/mL
- IL-10 cytokine concentration [6]: 872.88 pg/mL
- IL-12p70 cytokine concentration [6]: 0 pg/mL
- IL-13 cytokine concentration [6]: 1081.09 pg/mL
- IL-17 cytokine concentration [6]: 1069.51 pg/mL
- IL-22 cytokine concentration [6]: 0 pg/mL
- INF-α cytokine concentration [6]: 7456.27 pg/mL
- TNF-α cytokine concentration [6]: 2706.11 pg/mL

Substance: alpha-melanocyte-stimulating hormone [α-MSH, reference compound]
- IL-1 cytokine concentration [1]: 229 pg/mL
- IL-2 cytokine concentration [1]: 0 pg/mL
- IL-4 cytokine concentration [1]: 136.29 pg/mL
- IL-5 cytokine concentration [1]: 145.89 pg/mL
- IL-6 cytokine concentration [1]: 70.19 pg/mL
- IL-9 cytokine concentration [1]: 90.3 pg/mL
- IL-10 cytokine concentration [1]: 109.15 pg/mL
- IL-12p70 cytokine concentration [1]: 727.17 pg/mL
- IL-13 cytokine concentration [1]: 59.46 pg/mL
- IL-17 cytokine concentration [1]: 125.8 pg/mL
- IL-22 cytokine concentration [1]: 0 pg/mL
- TNF-α cytokine concentration [1]: 155.15 pg/mL
- IL-1 cytokine concentration [2]: 0 pg/mL
- IL-2 cytokine concentration [2]: 0 pg/mL
- IL-4 cytokine concentration [2]: 60.49 pg/mL
- IL-5 cytokine concentration [2]: 0 pg/mL
- IL-6 cytokine concentration [2]: 64.54 pg/mL
- IL-9 cytokine concentration [2]: 5.27 pg/mL
- IL-10 cytokine concentration [2]: 43.9 pg/mL
- IL-12 cytokine concentration [2]: 0 pg/mL
- IL-12p70 cytokine concentration [2]: 0 pg/mL
- IL-13 cytokine concentration [2]: 0 pg/mL
- IL-17 cytokine concentration [2]: 0 pg/mL
- IL-22 cytokine concentration [2]: 0 pg/mL
- TNF-α cytokine concentration [2]: 18.85 pg/mL
- IFN-γ cytokine concentration [3]: 584.13 pg/mL
- IL-1 cytokine concentration [3]: 233.71 pg/mL
- IL-2 cytokine concentration [3]: 166.83 pg/mL
- IL-4 cytokine concentration [3]: 158.58 pg/mL
- IL-5 cytokine concentration [3]: 26.63 pg/mL
- IL-6 cytokine concentration [3]: 103.97 pg/mL
- IL-9 cytokine concentration [3]: 93.72 pg/mL
- IL-10 cytokine concentration [3]: 154.89 pg/mL
- IL-12p70 cytokine concentration [3]: 100.99 pg/mL
- IL-13 cytokine concentration [3]: 74.71 pg/mL
- IL-17 cytokine concentration [3]: 123.27 pg/mL
- IL-22 cytokine concentration [3]: 2258.05 pg/mL
- TNF-α cytokine concentration [3]: 127.96 pg/mL
- IFN-γ cytokine concentration [4]: 0 pg/mL
- IL-1 cytokine concentration [4]: 0 pg/mL
- IL-2 cytokine concentration [4]: 139.68 pg/mL
- IL-4 cytokine concentration [4]: 72.42 pg/mL
- IL-5 cytokine concentration [4]: 14.37 pg/mL
- IL-6 cytokine concentration [4]: 117.88 pg/mL
- IL-9 cytokine concentration [4]: 34.99 pg/mL
- IL-10 cytokine concentration [4]: 164.01 pg/mL
- IL-12 cytokine concentration [4]: 0 pg/mL
- IL-12p70 cytokine concentration [4]: 0 pg/mL
- IL-13 cytokine concentration [4]: 185.71 pg/mL
- IL-17 cytokine concentration [4]: 139.74 pg/mL
- IL-22 cytokine concentration [4]: 0 pg/mL
- INF-α cytokine concentration [4]: 0 pg/mL
- TNF-a cytokine concentration [4]: 59.06 pg/mL
- TNF-α cytokine concentration [4]: 59.06 pg/mL
- IFN-γ cytokine concentration [5]: 1049.41 pg/mL
- IL-1 cytokine concentration [5]: 69689.2 pg/mL
- IL-2 cytokine concentration [5]: 12000 pg/mL
- IL-4 cytokine concentration [5]: 200.9 pg/mL
- IL-5 cytokine concentration [5]: 145.89 pg/mL
- IL-6 cytokine concentration [5]: 1542.01 pg/mL
- IL-9 cytokine concentration [5]: 187.5 pg/mL
- IL-10 cytokine concentration [5]: 4311.06 pg/mL
- IL-12p70 cytokine concentration [5]: 1161.04 pg/mL
- IL-13 cytokine concentration [5]: 462.62 pg/mL
- IL-17 cytokine concentration [5]: 2836.14 pg/mL
- IL-22 cytokine concentration [5]: 24400.4 pg/mL
- TNF-α cytokine concentration [5]: 3600 pg/mL
- IFN-γ cytokine concentration [6]: 10814.4 pg/mL
- IL-1 cytokine concentration [6]: 530.55 pg/mL
- IL-2 cytokine concentration [6]: 2307.5 pg/mL
- IL-4 cytokine concentration [6]: 70.32 pg/mL
- IL-5 cytokine concentration [6]: 278.92 pg/mL
- IL-6 cytokine concentration [6]: 1241.17 pg/mL
- IL-9 cytokine concentration [6]: 264.59 pg/mL
- IL-10 cytokine concentration [6]: 977.83 pg/mL
- IL-12 cytokine concentration [6]: 0 pg/mL
- IL-12p70 cytokine concentration [6]: 0 pg/mL
- IL-13 cytokine concentration [6]: 1065.69 pg/mL
- IL-17 cytokine concentration [6]: 1660.92 pg/mL
- IL-22 cytokine concentration [6]: 0 pg/mL
- INF-α cytokine concentration [6]: 10814.35 pg/mL
- TNF-a cytokine concentration [6]: 3346.46 pg/mL
- TNF-α cytokine concentration [6]: 3346.46 pg/mL
